Data: US11905294B2, “Imidazo[1,5-a]pyrazine derivatives as PI3Kδ inhibitors” (BEIGENE, LTD., priority 2017, dated 2024)

Columns and labels:
PI3K (p110β/p85α) = PI3K (p110β/p85α) (Homo sapiens, UniProt P42338); assay: PI3Kβ assay (ADP-Glo Kinase Assay); type: biochemical; details: read-out: Enzyme activity IC50 PI3Kβ
PI3K (p110γ) = PI3K (p110γ) (Homo sapiens, UniProt P48736); assay: PI3Kγ assay (ADP-Glo Kinase Assay); type: biochemical; details: recombinant enzyme; IC50 (nM) or max inhibition (%) at 0.5 μM
PI3K (p110γ), sequence (P48736 whole entry): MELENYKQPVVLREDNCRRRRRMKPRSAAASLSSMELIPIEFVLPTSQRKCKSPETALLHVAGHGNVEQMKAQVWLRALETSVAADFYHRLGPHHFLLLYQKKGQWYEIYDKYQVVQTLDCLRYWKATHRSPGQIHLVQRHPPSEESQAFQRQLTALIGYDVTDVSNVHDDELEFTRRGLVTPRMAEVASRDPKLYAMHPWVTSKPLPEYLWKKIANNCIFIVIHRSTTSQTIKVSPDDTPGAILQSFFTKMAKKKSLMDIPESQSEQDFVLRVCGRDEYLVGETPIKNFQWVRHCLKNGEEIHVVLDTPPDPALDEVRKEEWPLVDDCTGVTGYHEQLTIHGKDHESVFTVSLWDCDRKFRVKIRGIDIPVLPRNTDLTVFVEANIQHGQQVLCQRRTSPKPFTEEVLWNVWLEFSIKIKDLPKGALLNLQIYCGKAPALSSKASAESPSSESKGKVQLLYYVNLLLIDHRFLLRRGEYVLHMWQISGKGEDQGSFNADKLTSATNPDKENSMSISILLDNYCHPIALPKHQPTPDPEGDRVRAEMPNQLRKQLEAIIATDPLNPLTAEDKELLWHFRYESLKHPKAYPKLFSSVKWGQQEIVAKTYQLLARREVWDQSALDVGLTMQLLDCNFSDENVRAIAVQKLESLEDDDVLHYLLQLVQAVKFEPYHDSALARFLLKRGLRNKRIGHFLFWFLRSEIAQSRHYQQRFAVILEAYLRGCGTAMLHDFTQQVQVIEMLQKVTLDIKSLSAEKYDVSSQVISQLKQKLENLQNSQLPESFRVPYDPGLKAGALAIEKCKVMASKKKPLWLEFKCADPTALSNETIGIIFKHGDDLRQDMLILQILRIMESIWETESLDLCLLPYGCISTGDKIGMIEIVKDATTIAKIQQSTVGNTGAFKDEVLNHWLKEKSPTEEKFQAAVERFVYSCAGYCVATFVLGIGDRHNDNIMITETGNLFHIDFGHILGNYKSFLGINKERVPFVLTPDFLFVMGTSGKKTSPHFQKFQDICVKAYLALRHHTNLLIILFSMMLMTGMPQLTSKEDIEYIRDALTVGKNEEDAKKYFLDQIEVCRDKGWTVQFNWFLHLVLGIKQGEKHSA

PI3K (p110δ/p85α) = PI3K (p110δ/p85α) (Homo sapiens, UniProt O00329); assay: PI3Kδ assay (ADP-Glo Kinase Assay); type: biochemical; details: recombinant enzyme; IC50 (nM) or max inhibition (%) at 0.5 μM
PI3K (p110δ/p85α), sequence (O00329 whole entry): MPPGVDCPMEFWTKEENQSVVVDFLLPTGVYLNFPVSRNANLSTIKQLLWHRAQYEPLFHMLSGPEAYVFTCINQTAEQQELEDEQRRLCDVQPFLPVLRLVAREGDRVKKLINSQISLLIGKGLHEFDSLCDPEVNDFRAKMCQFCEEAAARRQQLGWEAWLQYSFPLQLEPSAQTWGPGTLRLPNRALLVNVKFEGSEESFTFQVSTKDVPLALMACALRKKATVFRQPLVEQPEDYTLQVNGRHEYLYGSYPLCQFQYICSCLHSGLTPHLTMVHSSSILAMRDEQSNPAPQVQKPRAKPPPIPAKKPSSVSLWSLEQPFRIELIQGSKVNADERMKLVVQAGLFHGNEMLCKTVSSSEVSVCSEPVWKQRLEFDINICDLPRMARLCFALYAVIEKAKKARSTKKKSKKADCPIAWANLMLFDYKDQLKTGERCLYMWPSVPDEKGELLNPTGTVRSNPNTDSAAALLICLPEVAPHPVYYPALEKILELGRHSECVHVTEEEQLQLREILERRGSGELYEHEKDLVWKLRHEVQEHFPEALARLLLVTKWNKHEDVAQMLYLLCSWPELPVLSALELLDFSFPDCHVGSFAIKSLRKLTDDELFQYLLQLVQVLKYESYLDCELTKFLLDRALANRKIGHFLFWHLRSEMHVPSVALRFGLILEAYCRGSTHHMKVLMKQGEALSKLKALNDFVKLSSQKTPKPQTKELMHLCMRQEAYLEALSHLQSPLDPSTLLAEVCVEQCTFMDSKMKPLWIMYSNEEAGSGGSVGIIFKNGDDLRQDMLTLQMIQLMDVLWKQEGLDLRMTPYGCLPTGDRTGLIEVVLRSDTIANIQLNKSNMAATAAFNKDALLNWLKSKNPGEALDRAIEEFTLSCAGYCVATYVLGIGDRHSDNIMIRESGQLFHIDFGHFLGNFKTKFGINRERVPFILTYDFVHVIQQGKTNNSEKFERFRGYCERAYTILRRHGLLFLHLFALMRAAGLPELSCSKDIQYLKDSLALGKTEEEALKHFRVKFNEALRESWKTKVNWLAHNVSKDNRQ
PI3K (p110δ/p85α), sequence (P27986 whole entry partner): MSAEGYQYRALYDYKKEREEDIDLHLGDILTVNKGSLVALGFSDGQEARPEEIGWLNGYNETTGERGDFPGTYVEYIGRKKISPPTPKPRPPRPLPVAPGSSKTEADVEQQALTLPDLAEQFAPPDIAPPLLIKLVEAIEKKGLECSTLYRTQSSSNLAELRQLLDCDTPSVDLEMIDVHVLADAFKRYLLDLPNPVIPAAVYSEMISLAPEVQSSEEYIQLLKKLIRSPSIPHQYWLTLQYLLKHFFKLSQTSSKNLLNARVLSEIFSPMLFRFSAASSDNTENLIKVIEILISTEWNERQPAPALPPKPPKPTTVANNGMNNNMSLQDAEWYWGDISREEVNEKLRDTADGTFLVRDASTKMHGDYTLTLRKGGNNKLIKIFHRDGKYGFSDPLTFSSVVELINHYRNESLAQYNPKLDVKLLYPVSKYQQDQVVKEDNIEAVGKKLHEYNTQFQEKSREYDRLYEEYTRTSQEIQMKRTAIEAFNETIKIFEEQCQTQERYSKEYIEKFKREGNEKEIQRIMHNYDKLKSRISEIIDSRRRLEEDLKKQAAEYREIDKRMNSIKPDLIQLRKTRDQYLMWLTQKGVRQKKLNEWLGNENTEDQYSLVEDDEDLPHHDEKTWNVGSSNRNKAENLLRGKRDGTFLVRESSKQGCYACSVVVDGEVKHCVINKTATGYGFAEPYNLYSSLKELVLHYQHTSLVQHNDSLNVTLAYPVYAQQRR
Method in brief: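 Recombinant p110δ/p85α with lipid substrate and serially diluted compound, 0.5 hr RT preincubation; ATP-started reaction ran 1 hr at RT. ADP formed read by ADP-Glo luminescence; IC50 from four-parameter logistic fit of residual activity.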

PI3K (p110α/p85α) = PI3K (p110α/p85α) (Homo sapiens, UniProt P42336); assay: PI3Kα assay (ADP-Glo Kinase Assay); type: biochemical; details: recombinant enzyme; IC50 (nM) or max inhibition (%) at 0.5 μM
PI3K (p110α/p85α), sequence (P42336 whole entry): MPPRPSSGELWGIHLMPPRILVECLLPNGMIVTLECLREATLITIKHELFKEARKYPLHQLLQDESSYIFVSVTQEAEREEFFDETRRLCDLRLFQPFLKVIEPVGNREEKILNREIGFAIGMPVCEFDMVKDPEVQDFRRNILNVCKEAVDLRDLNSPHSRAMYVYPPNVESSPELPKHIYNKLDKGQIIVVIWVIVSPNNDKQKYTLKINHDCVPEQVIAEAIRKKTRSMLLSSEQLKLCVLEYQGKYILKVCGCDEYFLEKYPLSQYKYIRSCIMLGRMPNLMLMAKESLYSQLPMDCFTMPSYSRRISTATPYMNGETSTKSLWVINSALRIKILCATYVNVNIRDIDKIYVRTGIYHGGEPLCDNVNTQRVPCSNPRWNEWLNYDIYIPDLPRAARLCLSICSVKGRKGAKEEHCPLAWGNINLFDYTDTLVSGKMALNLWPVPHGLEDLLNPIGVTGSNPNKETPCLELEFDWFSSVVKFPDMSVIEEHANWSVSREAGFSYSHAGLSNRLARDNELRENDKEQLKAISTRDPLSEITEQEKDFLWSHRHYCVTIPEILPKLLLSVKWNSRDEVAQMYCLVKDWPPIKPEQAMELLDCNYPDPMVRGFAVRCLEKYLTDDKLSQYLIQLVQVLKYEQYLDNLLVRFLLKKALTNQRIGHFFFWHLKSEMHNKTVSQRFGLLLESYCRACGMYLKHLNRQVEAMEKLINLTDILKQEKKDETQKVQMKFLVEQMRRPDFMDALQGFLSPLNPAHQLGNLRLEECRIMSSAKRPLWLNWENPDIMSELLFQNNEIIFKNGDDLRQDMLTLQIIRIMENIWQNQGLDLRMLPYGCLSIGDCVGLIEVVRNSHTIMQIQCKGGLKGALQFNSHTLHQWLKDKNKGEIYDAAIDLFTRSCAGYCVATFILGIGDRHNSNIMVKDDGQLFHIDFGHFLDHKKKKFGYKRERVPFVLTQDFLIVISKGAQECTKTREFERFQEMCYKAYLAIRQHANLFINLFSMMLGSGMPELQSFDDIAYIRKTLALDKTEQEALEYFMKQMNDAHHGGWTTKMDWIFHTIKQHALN
PI3K (p110α/p85α), sequence (P27986 whole entry partner): as the sequence (P27986 whole entry partner) above

[1] = Pharmacokinetic properties in Sprague-Dawley rats after intravenous (IV) and oral (PO) administration; type: in vivo; details: rat; for AUC(0-inf) / clearance / half-life / Vd / Cmax / Tmax / bioavailability: male, Sprague-Dawley, plasma; for Vd: read-out: VdSS
Method: III. Pharmacokinetic Properties of Compounds in Sprague-Dawley Rats After Intravenous (IV) and Oral Administrations (PO)
The injection dosing solution was prepared as follows: 1.0 mg of a test compound was weighed and dissolved in 0.32 mL of dimethyl acetamide (DMA). The solution was then further diluted by 0.36 mL of ethanol and 0.32 mL of propylene glycol. The final concentration of the test compound was 1.0 mg·mL^−1.
The oral dosing solution was prepared as follows: 5.0 mg of a test compound was weighed and dispersed in […] of 0.5% methyl cellulose (MC). The final concentration of the test compound is 1 mg·mL^−1.
Male Sprague-Dawley rats (also summarized in Table 2) were housed in solid bottom polypropylene cages with sterilized bedding and receive sterilized diet and sterilized water. The room was controlled and monitored for humidity (targeted mean range 40% to 70%) and temperature (targeted mean range 18° C. to 26° C.) with 10 to 20 air changes/hour. The light cycle was maintained at 12-h light and 12-h dark. Only animals that appeared to be healthy were selected for this study based on overall health, body weight, or other relevant information.
Three rats were given a single IV dose of 1 mg·kg^−1 via tail vein injection and other three rats were given a single oral dose of 5 or 10 mg·kg^−1. The dosing solutions were freshly prepared prior to dose administration. The actual body weights and actual volume injected were recorded accordingly. Four hours after dosing, the rats were allowed to intake food.
Blood samples (˜150 μL) were collected at different times from the jugular vein catheter into EDTA-K2 coated tubes. Whole blood was processed by centrifugation at 3000 g for 10 min. Plasma samples were collected and kept at −80° C. freezer prior to analysis. The blood sampling time was recorded accordingly.
The dose samples of IV and PO were diluted with MeOH: H2O (4:1, v/v) to achieve the concentration of 2 μg·mL^−1, respectively. Then, 2.5 μL of the diluted samples were added with 47.5 μL blank plasma, and then were handled as the plasma sample procedure. An aliquot of 10 μL of the mixture was injected into the LC-MS/MS system.

PI3K (p110β/p85α), sequence (P42338 whole entry): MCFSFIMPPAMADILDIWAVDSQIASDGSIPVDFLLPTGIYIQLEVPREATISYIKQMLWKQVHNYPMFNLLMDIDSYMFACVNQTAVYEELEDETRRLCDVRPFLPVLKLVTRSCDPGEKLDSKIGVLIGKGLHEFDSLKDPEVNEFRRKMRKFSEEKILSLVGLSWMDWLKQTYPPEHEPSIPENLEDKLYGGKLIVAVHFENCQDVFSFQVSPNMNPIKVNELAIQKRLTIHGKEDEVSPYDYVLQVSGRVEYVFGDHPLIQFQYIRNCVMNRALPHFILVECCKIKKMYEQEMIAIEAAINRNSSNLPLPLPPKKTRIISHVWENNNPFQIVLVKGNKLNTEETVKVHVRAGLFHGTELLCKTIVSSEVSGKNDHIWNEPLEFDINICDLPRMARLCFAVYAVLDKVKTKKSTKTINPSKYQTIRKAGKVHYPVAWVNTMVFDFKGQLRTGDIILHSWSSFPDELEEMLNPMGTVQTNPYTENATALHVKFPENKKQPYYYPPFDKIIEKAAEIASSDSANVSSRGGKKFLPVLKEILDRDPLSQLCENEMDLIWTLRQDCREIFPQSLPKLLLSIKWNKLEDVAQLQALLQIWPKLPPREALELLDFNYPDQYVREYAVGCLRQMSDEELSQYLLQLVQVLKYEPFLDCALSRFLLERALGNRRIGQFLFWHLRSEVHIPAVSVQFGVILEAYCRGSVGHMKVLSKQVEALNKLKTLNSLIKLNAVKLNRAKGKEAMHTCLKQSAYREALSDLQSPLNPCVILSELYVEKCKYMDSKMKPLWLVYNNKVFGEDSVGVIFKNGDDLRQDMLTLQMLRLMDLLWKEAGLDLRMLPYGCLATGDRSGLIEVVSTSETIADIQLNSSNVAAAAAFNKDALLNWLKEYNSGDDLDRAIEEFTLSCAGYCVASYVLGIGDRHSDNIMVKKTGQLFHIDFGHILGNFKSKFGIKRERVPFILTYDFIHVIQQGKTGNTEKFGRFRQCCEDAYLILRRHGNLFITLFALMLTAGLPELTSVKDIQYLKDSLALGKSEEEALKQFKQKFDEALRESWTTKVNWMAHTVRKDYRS
PI3K (p110β/p85α), sequence (P27986 whole entry partner): as the sequence (P27986 whole entry partner) above

Row | IC50 (PI3K (p110β/p85α)) [µM] | IC50 (PI3K (p110γ)) [nM] | IC50 (PI3K (p110δ/p85α)) [nM] | IC50 (PI3K (p110α/p85α)) [nM] | Structure (SMILES) | further results
1 | 35 | 6300 | 0.95 | 11000 | Cc1nc([C@@H](C)c2cc(Cl)c(F)c(C(=O)N[C@H]3CC[C@H](O)CC3)c2OC(C)C)n2ccnc(N)c12 [Compound 60, 3((S)-1-(8-amino-1-methylimidazo[1,5-a]pyrazin-3-yl)ethyl)-5-chloro-6-fluoro-N-((trans)-4-hydroxycyclohexyl)-2-isopropoxybenzamide] | AUC(0-inf) ([1]; 1 mg/kg, IV 1 mpk): 218 ng·h/mL; clearance ([1]; 1 mg/kg, IV 1 mpk): 76.6 mL/min/kg; half-life ([1]; 1 mg/kg, IV 1 mpk): 0.6 h; Vd ([1]; 1 mg/kg, IV 1 mpk): 3.3 L/kg; AUC(0-inf) ([1]; 5 mg/kg, PO 5 mpk): 159 ng·h/mL; Cmax ([1]; 5 mg/kg, PO 5 mpk): 133 ng/mL; Tmax ([1]; 5 mg/kg, PO 5 mpk): 0.3 h; half-life ([1]; 5 mg/kg, PO 5 mpk): 2 h; bioavailability ([1]; 5 mg·kg^−1, PO 5 mpk vs IV 1 mpk): 14.6%
2 | 18 | 9200 | 2.9 | 43000 | Cc1nc(C(C)c2cc(Cl)c(F)c(C(=O)NC[C@@H](C)O)c2OC(C)C)n2ccnc(N)c12 (stereo partly drawn) [Compound 9, 3-(1-(8-amino-1-methylimidazo[1,5-a]pyrazin-3-yl)ethyl)-5-chloro-6-fluoro-N-((R)-2-hydroxypropyl)-2-isopropoxybenzamide] | 
3 | 28 | 3900 | 1.4 | 33000 | Cc1nc([C@@H](C)c2cc(Cl)c(F)c(C(=O)N[C@@H](C)c3ccccc3)c2OC(C)C)n2ccnc(N)c12 [Compound 21, 3-((S)-1-(8-amino-1-methylimidazo[1,5-a]pyrazin-3-yl)ethyl)-5-chloro-6-fluoro-2-isopropoxy-N-((S)-1-phenylethyl)benzamide] | 
4 | 22 | 9000 | 3 | 34000 | Cc1nc(C(C)c2cc(Cl)c(F)c(C(=O)NCC3(O)CC3)c2OC(C)C)n2ccnc(N)c12 (stereo not drawn) [Compound 10, 3-(1-(8-amino-1-methylimidazo[1,5-a]pyrazin-3-yl)ethyl)-5-chloro-6-fluoro-N-((1-hydroxycyclopropyl)methyl)-2-isopropoxybenzamide] | 
5 | 6.4 | 4500 | 0.97 | 27000 | Cc1nc([C@@H](C)c2cc(Cl)c(F)c(C(=O)NCC3CCOCC3)c2OC(C)C)n2ccnc(N)c12 [Compound 51, (S)-3-(1-(8-amino-1-methylimidazo[1,5-a]pyrazin-3-yl)ethyl)-5-chloro-6-fluoro-2-isopropoxy-N-((tetrahydro-2H-pyran-4-yl)methyl)benzamide] | 
6 | 8.7 | 6000 | 1.9 | 24000 | Cc1nc([C@@H](C)c2cc(Cl)c(F)c(C(=O)N[C@H]3CCC[C@H]3O)c2OC(C)C)n2ccnc(N)c12 [Compound 25, 3-((S)-1-(8-amino-1-methylimidazo[1,5-a]pyrazin-3-yl)ethyl)-5-chloro-6-fluoro-N-((1S,2R)-2-hydroxycyclopentyl)-2-isopropoxybenzamide] | 
7 | 12 | 4900 | 1.1 | 18000 | Cc1nc([C@@H](C)c2cc(Cl)c(F)c(C(=O)NC[C@H](C)O)c2OC(C)C)n2ccnc(N)c12 [Compound 57, 3-((S)-1-(8-amino-1-methylimidazo[1,5-a]pyrazin-3-yl)ethyl)-5-chloro-6-fluoro-N-((S)-2-hydroxypropyl)-2-isopropoxybenzamide] | 
8 | 6.8 | 4800 | 1.2 | 24000 | CCNC(=O)c1c(F)c(Cl)cc([C@H](C)c2nc(C)c3c(N)nccn23)c1OC(C)C [Compound 28, (S)-3-(1-(8-amino-1-methylimidazo[1,5-a]pyrazin-3-yl)ethyl)-5-chloro-6-fluoro-2-isopropoxy-N-ethyl-benzamide] | 
9 | 14 | 1200 | 2.1 | 8300 | Cc1nc([C@@H](C)c2cc(Cl)c(F)c(C(=O)N[C@@H](C)c3ccnc(C(F)(F)F)c3)c2OC(C)C)n2ccnc(N)c12 [Compound 59A, 3-((S)-1-(8-amino-1-methylimidazo[1,5-a]pyrazin-3-yl)ethyl)-5-chloro-6-fluoro-2-isopropoxy-N-((S)-1-(2-(trifluoromethyl)pyridin-4-yl)ethyl)benzamide] | 
10 | 16 | 5800 | 1.6 | 36000 | Cc1nc([C@@H](C)c2cc(Cl)c(F)c(C(=O)NC[C@@H]3CCCO3)c2OC(C)C)n2ccnc(N)c12 [Compound 24, 3-((S)-1-(8-amino-1-methylimidazo[1,5-a]pyrazin-3-yl)ethyl)-5-chloro-6-fluoro-2-isopropoxy-N-(((S)-tetrahydrofuran-2-yl)methyl)benzamide] | 
11 | 25 | 3200 | 1.4 | 6100 | Cc1nc([C@@H](C)c2cc(Cl)c(F)c(C(=O)N[C@]3(C)C[C@H](O)C3)c2OC(C)C)n2ccnc(N)c12 [Compound 38, 3-((S)-1-(8-amino-1-methylimidazo[1,5-a]pyrazin-3-yl)ethyl)-5-chloro-6-fluoro-2-isopropoxy-N-((1S,3R)-3-hydroxy-1-methylcyclobutyl)benzamide] | 
12 | > 50 | 3400 | 2.2 | 21000 | Cc1nc([C@@H](C)c2cc(Cl)c(F)c(C(=O)N3C[C@H](C)O[C@@H](C)C3)c2OC(C)C)n2ccnc(N)c12 [Compound 43, (3-((S)-1-(8-amino-1-methylimidazo[1,5-a]pyrazin-3-yl)ethyl)-5-chloro-6-fluoro-2-isopropoxyphenyl)((2S,6S)-2,6-dimethylmorpholino)methanone] | 
13 | 14 | 9500 | 2.8 | 14000 | Cc1nc([C@@H](C)c2cc(Cl)c(F)c(C(=O)NCCN3CCN(C)CC3)c2OC(C)C)n2ccnc(N)c12 [Compound 73, (S)-3-(1-(8-amino-1-methylimidazo[1,5-a]pyrazin-3-yl)ethyl)-5-chloro-6-fluoro-2-isopropoxy-N-(2-(4-methylpiperazin-1-yl)ethyl)benzamide] | AUC(0-inf) ([1]; 1 mg/kg, IV 1 mpk): 194 ng·h/mL; clearance ([1]; 1 mg/kg, IV 1 mpk): 86.6 mL/min/kg; half-life ([1]; 1 mg/kg, IV 1 mpk): 8.2 h; Vd ([1]; 1 mg/kg, IV 1 mpk): 59.4 L/kg; AUC(0-inf) ([1]; 10 mg/kg, PO 10 mpk): 918 ng·h/mL; Cmax ([1]; 10 mg/kg, PO 10 mpk): 220 ng/mL; Tmax ([1]; 10 mg/kg, PO 10 mpk): 1.5 h; half-life ([1]; 10 mg/kg, PO 10 mpk): 5.6 h; bioavailability ([1]; 10 mg·kg^−1, PO 10 mpk vs IV 1 mpk): 34.9%; half-life (in words) ([1]; in vivo): unexpected long half-life
14 | > 50 | 9800 | 9.7 | > 50000 | Cc1nc(C(C)c2cc(Cl)c(F)c(C(=O)N3CC(C(=O)O)C3)c2OC(C)C)n2ccnc(N)c12 (stereo not drawn) [Compound 1, 1-(3-(1-(8-amino-1-methylimidazo[1,5-a]pyrazin-3-yl)ethyl)-5-chloro-6-fluoro-2-isopropoxybenzoyl)azetidine-3-carboxylic acid] | 
